Consider seven compounds from patent US4751222A, “2,3,4,5-tetrahydro-1H-3-benzazepines and CNS affecting use thereof” (Novo Industri A/S, priority 1985, dated 1988).

Usually Ki stands for the equilibrium dissociation constant of an inhibitor or competing ligand from its target.

Where a name gives a salt, the structure may show the parent alone. Read-outs that look alike come from different tables or passages of the source.

One data set deals with dopamine D1 receptor (Rattus norvegicus, UniProt P18901). Briefly: biochemical. The conditions noted are these: read-out: Ki, dopamine stimulated adenylate cyclase.
For the next data set, the system named is dopamine D1. The conditions noted are these: cited from earlier work.
For data set [1] the following is noted: Life Sci. 34 (1984), 1529; cited from earlier work.
The next data set relates to mice. Briefly: acute toxicity in mice, intraperitoneal. Type of data set: in vivo. Particulars: 100 mg/kg intraperitoneal. The protocol: (§1) 8-chloro-7-hydroxy-3-methyl-5-(5-indanyl)-2,3,4,5-tetrahydro-1H-3-benzazepine and several other compounds of formula I were atoxic when given to rats and mice in a dosis of 100 mg/kg intraperitonealt.
The subject of a further data set is rats. Briefly: acute toxicity in rats, intraperitoneal. It counts as in vivo. Particulars: 100 mg/kg intraperitoneal. The protocol: as §1
The mark [2] stands for this setting: Life Sci. 31 (1982), 637 et seq.

dopamine D1 receptor, sequence (P18901 whole entry): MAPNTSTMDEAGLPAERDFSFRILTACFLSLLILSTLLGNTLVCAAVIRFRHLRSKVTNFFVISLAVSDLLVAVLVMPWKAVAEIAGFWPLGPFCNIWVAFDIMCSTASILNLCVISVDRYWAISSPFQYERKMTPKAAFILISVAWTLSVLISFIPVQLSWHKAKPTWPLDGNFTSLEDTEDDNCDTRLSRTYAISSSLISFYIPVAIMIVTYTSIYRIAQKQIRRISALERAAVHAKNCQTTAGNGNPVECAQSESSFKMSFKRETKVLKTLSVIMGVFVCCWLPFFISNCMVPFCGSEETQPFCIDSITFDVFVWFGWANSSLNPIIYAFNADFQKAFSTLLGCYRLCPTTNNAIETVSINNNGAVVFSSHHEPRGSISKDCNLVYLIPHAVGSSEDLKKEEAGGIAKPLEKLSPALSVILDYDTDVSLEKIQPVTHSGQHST
Text for dopamine D1 receptor: Ki is the affinity of the tested compound for the dopamine D1 receptor as estimated from Schild analysis.

On to `CN1CCc2cc(Cl)c(O)cc2C(c2cccc3ccoc23)C1` (racemic) [Example No. 5h, 8-chloro-7-hydroxy-3-methyl-5-(7-benzofuranyl)-2,3,4,5-tetrahydro-1H-3-benzazepine], for which the Ki at dopamine D1 receptor was found to be 0.006 µM.

As for `CN1CCc2cc(Cl)c(O)cc2C(c2ccc(Cl)c3c2OCCC3)C1` (racemic) [Example No. 5f, 8-chloro-7-hydroxy-3-methyl-5-(5-chlorochroman-8-yl)-2,3,4,5-tetrahydro-1H-3-benzazepine], the Ki at dopamine D1 receptor came to 0.01 µM.

Take `Oc1cc2c(cc1O)C(c1ccccc1)CNCC2` (stereo not shown) [SKF 38393, 2,3,4,5-tetrahydro-7,8-dihydroxy-1-phenyl-1H-3-benzazepine]: the “dopamine D1 activity” value with dopamine D1 (setting [2]) is reported as “selective but partial dopamine D1 agonists”.

Regarding “2,3,4,5-tetrahydro-9-chloro-7,8-dihydroxy-1-(4-hydroxyphenyl)-1H-3-benzazepine [SKF 82526]”, in the data set with dopamine D1 (setting [2]), the “dopamine D1 activity” value was “selective but partial dopamine D1 agonists”.

With `CN1CCc2cc(Cl)c(O)cc2C(c2ccc3c(c2)CCCC3)C1` (racemic) [Example No. 5j, 8-chloro-7-hydroxy-5-(1,2,3,4-tetrahydronaphth-6-yl)-3-methyl-2,3,4,5-tetrahydro-1H-3-benzazepine hydrochloride], the Ki on dopamine D1 receptor was 0.021 µM.

Consider `CN1CCc2cc(Cl)c(O)cc2[C@@H](c2ccccc2)C1` [SCH 23390, R-8-chloro-7-hydroxy-2,3,4,5-tetrahydro-3-methyl-5-phenyl-1H-3-benzazepine], for which the “dopamine D1 activity” value with dopamine D1 (Eur.J.Pharmacol. 91 (1983), 153 et seq.) was “selective D1 dopamine antagonist”. For the same compound, in data set [1], the duration of action entry was “short duration of action” and the peroral adsorption entry is recorded as “poor peroral adsorption”.

Turning to `Br.CN1CCc2cc(Cl)c(O)cc2C(c2ccc3c(c2)CCC3)C1` (stereo not shown) [Example No. 5a, 8-chloro-7-hydroxy-3-methyl-5-(5-indanyl)-2,3,4,5-tetrahydro-1H-3-benzazepine hydrobromide], the toxicity in mice result in the data set with mice was “atoxic”. Moreover, the toxicity in rats result in the data set on rats is listed as “atoxic”.
